Experiment: Organic solvent solvency with DCOI and retaining additive testing
Assay type: physicochemical
Design: key: Low: low solvency; Medium: medium solvency; High: high solvency
Conditions: 23.5% DCOI and 25.0% Chempol 801-2164 in the solvent; 40 degrees Fahrenheit; separation, precipitation, turbidity
Description: For testing the solvency (i.e., ability to dissolve) of the organic solvent for DCOI and the retaining additive, 4.7 gram of DCOI and 5.0 g of retaining additive were dissolved in 10.3 gram of organic solvent to make a 23.5% of DCOI and 25.0% resin solution in a clear 20 ml glass vial. Thereafter, the vial is stored at a selected temperature (i.e., ambient temperature, 40 degrees Fahrenheit, or 120 degree Fahrenheit or whenever a crosslinking may occur). The vial is monitored for up to 7 days for phase separation, precipitation, and turbidity, which may indicate incompatibility between the organic solvent and the retaining additive and/or DCOI. The as prepared solution is maintained at room temperature and 40 degrees Fahrenheit for up to 7 days or whenever a phase separation, precipitation or solution turbidity event happens to disqualify the solution.
The solvents were tested at 40 degrees Fahrenheit and rated low solvency, medium solvency, or high solvency based on the amount, if any, of separation, precipitation, and turbidity observed in each solution.

Question: With OCc1ccccc1 [Benzyl Alcohol] as the molecule, how does the “DCOI/Resin Solvency” value read?
Answer: High

Reference: patent US12636810B2, “Wood preservative composition comprising 4,5-dichloro-2-octylisothiazol-3(2H)-one, a method treating a wood substrate therewith, and a wood product produced therefrom” (KOPPERS PERFORMANCE CHEMICALS, INC., priority 2021, dated 2026)
